According to patent US10239883B2, “4-imidazopyridazin-1-yl-benzamides as BTK inhibitors” (Merck Sharp & Dohme B.V., priority 2011, dated 2019):

Each compound was assayed against Btk enzyme (His-Btk) (Homo sapiens (Human), UniProt Q06187) (assay: Btk enzyme activity, IMAP fluorescence polarization assay). Conditions: 60 min pre-incubation, 5 μM ATP, bin bound in nM.
Sequence of Btk enzyme (His-Btk) (Q06187 whole entry): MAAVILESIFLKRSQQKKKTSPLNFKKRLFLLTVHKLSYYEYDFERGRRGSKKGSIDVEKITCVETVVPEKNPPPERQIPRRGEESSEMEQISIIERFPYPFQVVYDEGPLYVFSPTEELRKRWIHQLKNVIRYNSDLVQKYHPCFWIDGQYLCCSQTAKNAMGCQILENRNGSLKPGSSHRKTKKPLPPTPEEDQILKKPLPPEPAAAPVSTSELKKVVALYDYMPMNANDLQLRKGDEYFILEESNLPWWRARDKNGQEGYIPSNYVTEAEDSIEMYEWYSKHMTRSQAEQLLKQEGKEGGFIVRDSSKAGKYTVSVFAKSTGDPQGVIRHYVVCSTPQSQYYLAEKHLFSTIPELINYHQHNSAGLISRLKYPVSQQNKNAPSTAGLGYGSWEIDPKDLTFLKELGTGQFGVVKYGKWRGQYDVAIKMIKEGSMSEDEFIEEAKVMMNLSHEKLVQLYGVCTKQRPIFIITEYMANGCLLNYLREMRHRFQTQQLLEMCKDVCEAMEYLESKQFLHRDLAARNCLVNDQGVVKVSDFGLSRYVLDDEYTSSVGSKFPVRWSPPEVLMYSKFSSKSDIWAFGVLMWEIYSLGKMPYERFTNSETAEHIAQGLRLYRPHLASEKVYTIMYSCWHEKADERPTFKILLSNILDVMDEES

Row | EC50 Btk activity values | SMILES
1 | <100 nM | CC#CC(=O)NCc1nc(-c2ccc(C(=O)Nc3ccccn3)cc2)c2c(N)nccn12 [Example 112, 4-(8-amino-3-(but-2-ynamidomethyl)imidazo[1,5-a]pyrazin-1-yl)-N-(pyridin-2-yl)benzamide]
2 | <100 nM | C[C@H](NC(=O)c1ccnc(Cl)n1)c1nc(-c2ccc(C(=O)Nc3ccccn3)cc2)c2c(N)nccn12 [Example 105, (S)-N-(1-(8-amino-1-(4-(pyridin-2-ylcarbamoyl)phenyl)imidazo[1,5-a]pyrazin-3-yl)ethyl)-2-chloropyrimidine-4-carboxamide]
3 | <100 nM | CC#CC(=O)N1CCC[C@H]1c1nc(-c2ccc(C(=O)Nc3cc(F)ccn3)cc2)c2c(N)nccn12 [Example 106, (S)-4-(8-amino-3-(1-but-2-ynoylpyrrolidin-2-yl)imidazo[1,5-a]pyrazin-1-yl)-N-(4-fluoropyridin-2-yl)benzamide]
4 | <100 nM | CC#CC(=O)N1CCCC[C@H]1c1nc(-c2ccc(C(=O)Nc3nccc(C)n3)cc2)c2c(N)nccn12 [Example 89, (S)-4-(8-amino-3-(1-but-2-ynoylpiperidin-2-yl)imidazo[1,5-a]pyrazin-1-yl)-N-(4-methylpyrimidin-2-yl)benzamide]
5 | <100 nM | COC/C=C/C(=O)N1CCC[C@H]1c1nc(-c2ccc(C(=O)Nc3ccccn3)c(OC)c2)c2c(N)nccn12 [Example 103, (S,E)-4-(8-amino-3-(1-(4-methoxybut-2-enoyl)pyrrolidin-2-yl)imidazo[1,5-a]pyrazin-1-yl)-2-methoxy-N-(pyridin-2-yl)benzamide]
6 | <100 nM | CCCc1ccnc(NC(=O)c2ccc(-c3nc([C@@H]4CCCCN4C(=O)/C=C/COC)n4ccnc(N)c34)cc2F)c1 [Example 114, (S,E)-4-(8-amino-3-(1-(4-methoxybut-2-enoyl)piperidin-2-yl)imidazo[1,5-a]pyrazin-1-yl)-2-fluoro-N-(4-propylpyridin-2-yl)benzamide]
7 | <100 nM | COC/C=C/C(=O)N1CCC[C@H]1c1nc(-c2ccc(C(=O)Nc3cc(C#N)ccn3)cc2)c2c(N)nccn12 [Example 98, (S,E)-4-(8-amino-3-(1-(4-methoxybut-2-enoyl)pyrrolidin-2-yl)imidazo[1,5-a]pyrazin-1-yl)-N-(4-cyanopyridin-2-yl)benzamide]

The next lines start with the compound.

Row | SMILES | EC50 Btk activity values
8 | Nc1nccn2c([C@@H]3CCCN3C(=O)/C=C/CN3CCCC3)nc(-c3ccc(C(=O)Nc4ccccn4)cc3)c12 [Example 2, (S,E)-4-(8-amino-3-(1-(4-(pyrrolidin-1-yl)but-2-enoyl)pyrrolidin-2-yl)imidazo[1,5-a]pyrazin-1-yl)-N-(pyridin-2-yl)benzamide] | <100 nM
9 | COCC#CC(=O)N1CCC[C@H]1c1nc(-c2ccc(C(=O)Nc3ccccn3)cc2)c2c(N)nccn12 [Example 41, (S)-4-(8-Amino-3-(1-(4-methoxybut-2-ynoyl)pyrrolidin-2-yl)imidazo[1,5-a]pyrazin-1-yl)-N-(pyridin-2-yl)benzamide] | <100 nM
10 | COC/C=C/C(=O)N1CCC[C@H]1c1nc(-c2ccc(C(=O)Nc3cc(OC)ccn3)cc2)c2c(N)nccn12 [Example 51, (S,E)-4-(8-amino-3-(1-(4-methoxybut-2-enoyl)pyrrolidin-2-yl)imidazo[1,5-a]pyrazin-1-yl)-N-(4-methoxypyridin-2-yl)benzamide] | <100 nM
11 | COC/C=C/C(=O)N1CCCC[C@H]1c1nc(-c2ccc(C(=O)Nc3cc(F)ccn3)cc2)c2c(N)nccn12 [Example 81, (S,E)-4-(8-amino-3-(1-(4-methoxybut-2-enoyl)piperidin-2-yl)imidazo[1,5-a]pyrazin-1-yl)-N-(4-fluoropyridin-2-yl)benzamide] | <100 nM
12 | Nc1nccn2c([C@@H]3CCCN3C(=O)c3ccnc(Cl)n3)nc(-c3ccc(C(=O)Nc4ccccn4)cc3)c12 [Example 5, (S)-4-(8-amino-3-(1-(2-chloropyrimidine-4-carbonyl)pyrrolidin-2-yl)imidazo[1,5-a]pyrazin-1-yl)-N-(pyridin-2-yl)benzamide] | <100 nM
13 | CC#CC(=O)N1CCCC[C@H]1c1nc(-c2ccc(C(=O)Nc3ccon3)cc2)c2c(N)nccn12 [Example 24, (S)-4-(8-Amino-3-(1-but-2-ynoylpiperidin-2-yl)imidazo[1,5-a]pyrazin-1-yl)-N-(isoxazol-3-yl)benzamide] | <100 nM
14 | CN(C)C/C=C/C(=O)N1CCC[C@H]1c1nc(-c2ccc(C(=O)Nc3cc(F)ccn3)cc2)c2c(N)nccn12 [Example 7, (S,E)-4-(8-Amino-3-(1-(4-(dimethylamino)but-2-enoyl)pyrrolidin-2-yl)imidazo[1,5-a]pyrazin-1-yl)-N-(4-fluoropyridin-2-yl)benzamide] | <100 nM
15 | Nc1nccn2c([C@@H]3CCCN3C(=O)c3ccnc(Cl)n3)nc(-c3ccc(C(=O)Nc4ccccn4)c(F)c3)c12 [Example 84, (S)-4-(8-amino-3-(1-(2-chloropyrimidine-4-carbonyl)pyrrolidin-2-yl)imidazo[1,5-a]pyrazin-1-yl)-2-fluoro-N-(pyridin-2-yl)benzamide] | <100 nM
16 | CN(C)C/C=C/C(=O)N1CCCC[C@H]1c1nc(-c2ccc(C(=O)Nc3cccnn3)cc2)c2c(N)nccn12 [Example 73, (S,E)-4-(8-amino-3-(1-(4-(dimethylamino)but-2-enoyl)piperidin-2-yl)imidazo[1,5-a]pyrazin-1-yl)-N-(pyridazin-3-yl)benzamide] | <100 nM
17 | COc1cc(-c2nc([C@@H]3CCCN3C(=O)c3ccnc(Cl)n3)n3ccnc(N)c23)ccc1C(=O)Nc1ccccn1 [Example 83, (S)-4-(8-amino-3-(1-(2-chloropyrimidine-4-carbonyl)pyrrolidin-2-yl)imidazo[1,5-a]pyrazin-1-yl)-2-methoxy-N-(pyridin-2-yl)benzamide] | <100 nM
18 | COC/C=C/C(=O)N1CCC[C@H]1c1nc(-c2ccc(C(=O)Nc3ccccn3)cc2)c2c(N)nccn12 [Example 4, (S,E)-4-(8-amino-3-(1-(4-methoxybut-2-enoyl)pyrrolidin-2-yl)imidazo[1,5-a]pyrazin-1-yl)-N-(pyridin-2-yl)benzamide] | <100 nM
19 | CC#CC(=O)N1CCC[C@H]1c1nc(-c2ccc(C(=O)Nc3ccccn3)c(F)c2)c2c(N)nccn12 [Example 50, (S)-4-(8-amino-3-(1-but-2-ynoylpyrrolidin-2-yl)imidazo[1,5-a]pyrazin-1-yl)-2-fluoro-N-(pyridin-2-yl)benzamide] | <100 nM
20 | CC(C)c1ccnc(NC(=O)c2ccc(-c3nc([C@@H]4CCCN4C(=O)c4ccnc(Cl)n4)n4ccnc(N)c34)cc2)c1 [Example 70, (S)-4-(8-amino-3-(1-(2-chloropyrimidine-4-carbonyl)pyrrolidin-2-yl)imidazo[1,5-a]pyrazin-1-yl)-N-(4-isopropylpyridin-2-yl)benzamide] | <100 nM
21 | Cc1ccnc(NC(=O)c2ccc(-c3nc([C@@H]4CCCN4C(=O)/C=C/CN(C)C)n4ccnc(N)c34)cc2)c1 [Example 59, (S,E)-4-(8-amino-3-(1-(4-(dimethylamino)but-2-enoyl)pyrrolidin-2-yl)imidazo[1,5-a]pyrazin-1-yl)-N-(4-methylpyridin-2-yl)benzamide] | <100 nM

Same assay, conditions: 60 min pre-incubation, 5 μM ATP, bin bound in μM

Row | EC50 Btk activity values | SMILES
22 | <1000 nM | C=C(C(=O)N1CCC[C@H]1c1nc(-c2ccc(C(=O)Nc3ccccn3)cc2)c2c(N)nccn12)C(F)(F)F [Example 92, (S)-4-(8-amino-3-(1-(2-(trifluoromethyl)acryloyl)pyrrolidin-2-yl)imidazo[1,5-a]pyrazin-1-yl)-N-(pyridin-2-yl)benzamide]
23 | <1000 nM | Nc1nccn2c([C@@H]3CCCCN3C(=O)c3ccnc(Cl)n3)nc(-c3ccc(C(=O)Nc4ncccn4)cc3)c12 [Example 90, (S)-4-(8-amino-3-(1-(2-chloropyrimidine-4-carbonyl)piperidin-2-yl)imidazo[1,5-a]pyrazin-1-yl)-N-(pyrimidin-2-yl)benzamide]
24 | <1000 nM | CCCc1ccnc(NC(=O)c2ccc(-c3nc([C@@H]4CCCN4C(=O)/C=C/COC)n4ccnc(N)c34)c(C)c2)c1 [Example 87, 4-(8-amino-3-((S)-1-((E)-4-methoxybut-2-enoyl)pyrrolidin-2-yl)imidazo[1,5-a]pyrazin-1-yl)-3-methyl-N-(4-propylpyridin-2-yl)benzamide]
25 | <1000 nM | COC/C=C/C(=O)N1CCCC[C@H]1c1nc(-c2ccc(C(=O)Nc3nccc(C)n3)cc2)c2c(N)nccn12 [Example 88, (S,E)-4-(8-amino-3-(1-(4-methoxybut-2-enoyl)piperidin-2-yl)imidazo[1,5-a]pyrazin-1-yl)-N-(4-methylpyrimidin-2-yl)benzamide]
26 | <1000 nM | COC/C=C/C(=O)N1CCCC[C@H]1c1nc(-c2ccc(C(=O)Nc3ccncn3)cc2)c2c(N)nccn12 [Example 86, (S,E)-4-(8-amino-3-(1-(4-methoxybut-2-enoyl)piperidin-2-yl)imidazo[1,5-a]pyrazin-1-yl)-N-(pyrimidin-4-yl)benzamide]

Continued, compound first:

Row | SMILES | EC50 Btk activity values
27 | COC/C=C/C(=O)N1CCCC[C@H]1c1nc(-c2ccc(C(=O)Nc3ncccn3)cc2)c2c(N)nccn12 [Example 55, (S,E)-4-(8-amino-3-(1-(4-methoxybut-2-enoyl)piperidin-2-yl)imidazo[1,5-a]pyrazin-1-yl)-N-(pyrimidin-2-yl)benzamide] | <1000 nM
28 | COC/C=C/C(=O)N1CCCC[C@H]1c1nc(-c2ccc(C(=O)Nc3ccccn3)cc2C)c2c(N)nccn12 [Example 85, 4-(8-amino-3-((S)-1-((E)-4-methoxybut-2-enoyl)piperidin-2-yl)imidazo[1,5-a]pyrazin-1-yl)-3-methyl-N-(pyridin-2-yl)benzamide] | <1000 nM
29 | COC/C=C/C(=O)N1CCC[C@H]1c1nc(-c2ccc(C(=O)Nc3ccccn3)c(F)c2)c2c(N)nccn12 [Example 52] | <1000 nM
30 | COC/C=C/C(=O)N1CCCC[C@H]1c1nc(-c2ccc(C(=O)Nc3cccnn3)cc2)c2c(N)nccn12 [Example 72, (S,E)-4-(8-amino-3-(1-(4-methoxybut-2-enoyl)piperidin-2-yl)imidazo[1,5-a]pyrazin-1-yl)-N-(pyridazin-3-yl)benzamide] | <1000 nM
